Data on 2 molecules can be found in patent US20050019850A1, “Method for identifying fungicidally active compounds based on guanylate kinases” (priority 2003, published 2005).

This assay deals with U. maydis guanylate kinase (Mycosarcoma maydis, UniProt A0A0D1DZ04). The assay can be described thus: Determination of the KM value of guanylate kinase for its substrates (Lineweaver/Burk). To be noted: read-out: KM value; FIG. 3, Lineweaver/Burk representation; substrate of guanylate kinase. The assay is classed as biochemical, Ustilago maydis.
U. maydis guanylate kinase, sequence (A0A0D1DZ04 118-213, added parts left off): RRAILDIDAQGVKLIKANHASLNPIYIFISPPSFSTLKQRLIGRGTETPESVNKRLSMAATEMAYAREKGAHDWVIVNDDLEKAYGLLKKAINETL

Description: Lineweaver/Burk representation of the data: 1/Vo=1/Vmax+1/S×(KM/Vmax), wherein Vo is the initial reaction rate, Vmax the maximum conversion rate possible and S the substrate concentration. Vmax and KM can then be read as the intercepts on the horizontal and the vertical axes 1/Vmax and 1/KM, respectively.
Here, pyruvate kinase converts phosphoenolpyruvate into pyruvate, which is then utilised by lactate dehydrogenase for oxidizing NADH to give NAD. The NAD concentration, which increases owing to the coupled reaction, or the NADH concentration, which decreases owing to the coupled reaction, can be measured photospectrometrically by absorption or fluorescence measurement (absorption drops at 340 nm, fluorescence drops at 340 nm (emission at 465 nm)).

Broadly, the Km is the concentration of substrate that gives half-maximal velocity. Turning to `Nc1nc2c(ncn2[C@@H]2O[C@H](COP(=O)(O)O)[C@@H](O)[C@H]2O)c(=O)[nH]1` [GMP], the Michaelis-Menten constant (Km) came to 40 µM.
With `Nc1ncnc2c1ncn2[C@@H]1O[C@H](COP(=O)(O)OP(=O)(O)OP(=O)(O)O)[C@@H](O)[C@H]1O` [ATP], the Km came out at 100 µM.
